Experimental data from ChEMBL document CHEMBL1158780, “Anti-Helicobacter pylori compounds from Santalum album” (2005).
Converted amounts (≈) assume the structure as drawn.

Columns and labels:
Format in all cases: functional
Helicobacter pylori [1] = assay: Antimicrobial activity against Helicobacter pylori ATCC 43504 at 100 ug/disk after 4 days by disk diffusion method; details: ATCC 43504, 96 h, read-out: IZ
Helicobacter pylori [2] = assay: Antimicrobial activity against Helicobacter pylori SS1 at 100 ug/disk after 4 days by disk diffusion method; details: SS1, 96 h, read-out: IZ
Helicobacter pylori [3] = assay: Antimicrobial activity against Helicobacter pylori TPH30 after 4 days by twofold plate dilution method; details: 96 h
Helicobacter pylori [4] = assay: Antimicrobial activity against Helicobacter pylori SS1 after 4 days by twofold plate dilution method; details: SS1, 96 h
Helicobacter pylori [5] = assay: Antimicrobial activity against Clarithromycin-resistant Helicobacter pylori TS281 after 4 days by twofold plate dilution method; details: 96 h
Helicobacter pylori [6] = assay: Antimicrobial activity against Helicobacter pylori Sa-1 isolate after 4 days by twofold plate dilution method; details: 96 h
Helicobacter pylori [7] = assay: Antimicrobial activity against Clarithromycin-resistant Helicobacter pylori TS648 after 4 days by twofold plate dilution method; details: 96 h
Helicobacter pylori [8] = assay: Antimicrobial activity against Helicobacter pylori ATCC 43504 after 4 days by twofold plate dilution method; details: ATCC 43504, 96 h
Helicobacter pylori [9] = assay: Antimicrobial activity against Helicobacter pylori Sa-2 isolate after 4 days by twofold plate dilution method; details: 96 h
Helicobacter pylori [10] = assay: Antimicrobial activity against Helicobacter pylori Sa-3 isolate after 4 days by twofold plate dilution method; details: 96 h
Helicobacter pylori [11] = assay: Antimicrobial activity against Helicobacter pylori SS1 at 250 ng/disk after 4 days by disk diffusion method
Helicobacter pylori [12] = assay: Antimicrobial activity against Helicobacter pylori ATCC 43504 at 250 ng/disk after 4 days by disk diffusion method

Row | SMILES | zone of inhibition at 100 µg/disc (Helicobacter pylori [1]) | zone of inhibition at 100 µg/disc (Helicobacter pylori [2]) | MIC (Helicobacter pylori [3]) | MIC (Helicobacter pylori [4]) | MIC (Helicobacter pylori [5]) | MIC (Helicobacter pylori [6]) | MIC (Helicobacter pylori [7]) | MIC (Helicobacter pylori [8]) | MIC (Helicobacter pylori [9]) | MIC (Helicobacter pylori [10]) | inhibition zone (IZ) (Helicobacter pylori [11]) | inhibition zone (IZ) (Helicobacter pylori [12])
1 | CC1(CCC=C(CO)CO)C2CC3C(C2)C31C (stereo not drawn) | 38.7 mm | 25.9 mm |  |  |  |  |  |  |  |  |  | 
2 | C/C(=C/CC[C@@]1(C)[C@@H]2CC[C@@H](C2)[C@@]1(C)O)CO | 20.1 mm | 16.8 mm |  |  |  |  |  |  |  |  |  | 
3 | C/C(=C/CCC(C)(O)c1ccc(C)cc1)CO (stereo not drawn) | 24.9 mm | 11.2 mm |  |  |  |  |  |  |  |  |  | 
4 | C/C(=C/CC[C@@]1(C)[C@H]2CC[C@]1(C)[C@H](O)C2)CO | 27.1 mm | 11.1 mm |  |  |  |  |  |  |  |  |  | 
5 | C=C(CC/C=C(\C)CO)[C@@H]1CC=C(C)CC1 | 11.9 mm | 10.6 mm | 62.5 µg/mL (≈ 284 µM) | 125 µg/mL (≈ 567 µM) | 62.5 µg/mL (≈ 284 µM) | 31.3 µg/mL (≈ 142 µM) | 31.3 µg/mL (≈ 142 µM) | 62.5 µg/mL (≈ 284 µM) | 62.5 µg/mL (≈ 284 µM) | 31.3 µg/mL (≈ 142 µM) |  | 
6 | C/C(=C/CC[C@@]1(C)C2CC[C@@](C)(C2)[C@@H]1O)CO | 27.6 mm | 15.5 mm |  |  |  |  |  |  |  |  |  | 
7 | CC1(C)S[C@@H]2[C@H](NC(=O)[C@H](N)c3ccc(O)cc3)C(=O)N2[C@H]1C(=O)O [AMOXICILLIN] |  |  | 0.25 µg/mL (≈ 0.684 µM) | 0.25 µg/mL (≈ 0.684 µM) | 0.5 µg/mL (≈ 1.37 µM) | 0.06 µg/mL (≈ 0.164 µM) | 0.13 µg/mL (≈ 0.356 µM) | 0.06 µg/mL (≈ 0.164 µM) | 0.06 µg/mL (≈ 0.164 µM) | 0.25 µg/mL (≈ 0.684 µM) | 20.3 mm | 35.3 mm
8 | C=C(CC/C=C(/C)CO)[C@H]1CC[C@@](C)(O)CC1 | 8.9 mm |  |  |  |  |  |  |  |  |  |  | 
9 | CC[C@H]1OC(=O)[C@H](C)[C@@H](O[C@H]2C[C@@](C)(OC)[C@@H](O)[C@H](C)O2)[C@H](C)[C@@H](O[C@@H]2O[C@H](C)C[C@H](N(C)C)[C@H]2O)[C@](C)(OC)C[C@@H](C)C(=O)[C@H](C)[C@@H](O)[C@]1(C)O [CLARITHROMYCIN] |  |  | ≤ 0.06 µg/mL | ≤ 0.06 µg/mL | 32 µg/mL (≈ 42.8 µM) | ≤ 0.06 µg/mL | 2 µg/mL (≈ 2.67 µM) | ≤ 0.06 µg/mL | ≤ 0.06 µg/mL | ≤ 0.06 µg/mL |  | 
10 | C=C1[C@H]2CC[C@H](C2)[C@]1(C)CCC=C(CO)CO | 21.1 mm | 10.4 mm |  |  |  |  |  |  |  |  |  | 
11 | C/C(=C/CC[C@]1(C)[C@H]2CC[C@]1(C)[C@@H](O)C2)CO | 28.9 mm | 22.8 mm |  |  |  |  |  |  |  |  |  | 
12 | C/C(=C/CC[C@]1(C)C2C[C@@H]3[C@H](C2)C31C)CO | 21.6 mm | 11.5 mm | 15.6 µg/mL (≈ 70.8 µM) | 31.3 µg/mL (≈ 142 µM) | 15.6 µg/mL (≈ 70.8 µM) | 7.8 µg/mL (≈ 35.4 µM) | 7.8 µg/mL (≈ 35.4 µM) | 15.6 µg/mL (≈ 70.8 µM) | 31.3 µg/mL (≈ 142 µM) | 7.8 µg/mL (≈ 35.4 µM) |  | 
13 | C=C1[C@H]2CC[C@H](C2)[C@@]1(C)CC/C=C(/C)CO | 27.2 mm | 13.5 mm | 7.8 µg/mL (≈ 35.4 µM) | 31.3 µg/mL (≈ 142 µM) | 7.8 µg/mL (≈ 35.4 µM) | 7.8 µg/mL (≈ 35.4 µM) | 7.8 µg/mL (≈ 35.4 µM) | 7.8 µg/mL (≈ 35.4 µM) | 7.8 µg/mL (≈ 35.4 µM) | 7.8 µg/mL (≈ 35.4 µM) |  | 
